# Data as given in patent US6818648B2, “Aryloxy- and arylthiosubstituted pyrimidines and triazines and derivatives thereof” (Bristol-Myers Squibb Pharma, priority 1996, dated 2004).
row,Structure (SMILES),melting point
1,"C=C(C)c1cc(Br)c(Oc2nc(C)nc(N3CCOCC3)n2)c(OC)c1 [Example 5, 2-[2-bromo-6-methoxy-4-(1-methylethenyl)phenoxy]-4-methyl-6-(4-morpholinyl)-1,3,5-triazine]",63 to 67 °C
2,"C=C(C)c1cc(Br)c(Oc2nc(C)nc(N3CCOCC3)n2)c(OC)c1 [Example 6, 2-[2-bromo-6-methoxy-4-(1-methylethenyl)phenoxy]-4-methyl-6-(4-morpholinyl)-1,3,5-triazine]",131 to 133 °C
